Experimental data reported in PubChem BioAssay AID1963836 (Molecular Pharmacology Branch, DTP, NCI, 2024).

Test system: 857933-349-R-J2-PDC complex spheroid viability
Experiment: Anticancer human tumor 857933-349-R-J2-PDC patient-derived colon adenocarcinoma cell line growth inhibition [POLQ]
Details: for IC50: curve of first compound; for viability, T/C: stronger effect = lower value; active = viability on the fitted dose curve at most 10% of control; inactive = the rest
Procedure, shortened: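 Growth inhibition in 3D: complex spheroids (tumor PDC, HUVEC, MSC) treated with POLQ inhibitor combinations; where Cmax unknown, highest tested concentration 10 microM, except SN-38 at 1 microM.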
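Also: spheroids exposed to compounds for seven days before readout.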

CC(=O)O[C@H]1C(=O)[C@@]2(C)[C@H]([C@H](OC(=O)c3ccccc3)[C@]3(O)C[C@H](OC(=O)[C@H](O)[C@@H](NC(=O)c4ccccc4)c4ccccc4)C(C)=C1C3(C)C)[C@]1(OC(C)=O)CO[C@@H]1C[C@@H]2O + Nc1ccc(C#CCN(C(=O)Cc2ncc(C(F)(F)F)cc2C(F)(F)F)c2ccc(F)cc2)nn1
12.8 nM: IC50 (second compound 0.316 µM)
< 9.49 nM: IC50 (second compound 0.0316 µM) | IC50 (second compound 0.1 µM)
11.3 nM: IC50 (second compound 10 µM)
9.73 nM: IC50 (second compound 3.16 µM)
inactive: viability, T/C (second compound 0.0316 µM, first compound 0.00949 µM) 45% | viability, T/C (second compound 0.0316 µM, first compound 0.03 µM) 20.3% | viability, T/C (second compound 0.0316 µM, first compound 0.0949 µM) 13.2% | viability, T/C (second compound 0.0316 µM, first compound 0.3 µM) 10.6% | viability, T/C (second compound 0.0316 µM, first compound 0.949 µM) 12.3% | viability, T/C (second compound 0.0316 µM, first compound 3 µM) 15.7% | viability, T/C (second compound 0.1 µM, first compound 0.00949 µM) 45.8% | viability, T/C (second compound 0.1 µM, first compound 0.03 µM) 22.9% | viability, T/C (second compound 0.1 µM, first compound 0.0949 µM) 10.2% | viability, T/C (second compound 0.1 µM, first compound 0.3 µM) 15.6% | viability, T/C (second compound 0.1 µM, first compound 0.949 µM) 11.8% | viability, T/C (second compound 0.1 µM, first compound 3 µM) 15.2% | viability, T/C (second compound 0.316 µM, first compound 0.00949 µM) 58.1% | viability, T/C (second compound 0.316 µM, first compound 0.03 µM) 27.4% | viability, T/C (second compound 0.316 µM, first compound 0.0949 µM) 12.8% | viability, T/C (second compound 0.316 µM, first compound 0.3 µM) 14.9% | viability, T/C (second compound 0.316 µM, first compound 0.949 µM) 15.1% | viability, T/C (second compound 0.316 µM, first compound 3 µM) 17.1% | viability, T/C (second compound 1 µM, first compound 0.00949 µM) 54.5% | viability, T/C (second compound 1 µM, first compound 0.03 µM) 24.8% | viability, T/C (second compound 1 µM, first compound 0.0949 µM) 14.6% | viability, T/C (second compound 1 µM, first compound 0.3 µM) 14% | viability, T/C (second compound 1 µM, first compound 0.949 µM) 17.4% | viability, T/C (second compound 1 µM, first compound 3 µM) 14.8% | viability, T/C (second compound 3.16 µM, first compound 0.00949 µM) 50.6% | viability, T/C (second compound 3.16 µM, first compound 0.03 µM) 20.1% | viability, T/C (second compound 3.16 µM, first compound 0.0949 µM) 16.1% | viability, T/C (second compound 3.16 µM, first compound 0.3 µM) 11.7% | viability, T/C (second compound 3.16 µM, first compound 0.949 µM) 17.3% | viability, T/C (second compound 3.16 µM, first compound 3 µM) 18.6% | viability, T/C (second compound 10 µM, first compound 0.00949 µM) 54.2% | viability, T/C (second compound 10 µM, first compound 0.03 µM) 26.5% | viability, T/C (second compound 10 µM, first compound 0.0949 µM) 16.8% | viability, T/C (second compound 10 µM, first compound 0.3 µM) 14.9% | viability, T/C (second compound 10 µM, first compound 0.949 µM) 14.5% | viability, T/C (second compound 10 µM, first compound 3 µM) 20.3%
11.2 nM: IC50 (second compound 1 µM)

CC1COCCN1c1cc(-c2ccnn2C)c2ccnc(-c3ccn[nH]3)c2n1 (centres undefined) + Cc1cccc(N(C)C(=O)C2C(O)CCN2c2nc(C)cc(C(F)(F)F)c2C#N)c1
153 nM: IC50 (second compound 3.16 µM)
235 nM: IC50 (second compound 0.316 µM)
inactive: viability, T/C (second compound 0.0316 µM, first compound 0.0316 µM) 58.7% | viability, T/C (second compound 0.0316 µM, first compound 0.1 µM) 55.3% | viability, T/C (second compound 0.0316 µM, first compound 0.316 µM) 44% | viability, T/C (second compound 0.0316 µM, first compound 1 µM) 29.7% | viability, T/C (second compound 0.0316 µM, first compound 3.16 µM) 32.7% | viability, T/C (second compound 0.0316 µM, first compound 10 µM) 36.6% | viability, T/C (second compound 0.1 µM, first compound 0.0316 µM) 71.6% | viability, T/C (second compound 0.1 µM, first compound 0.1 µM) 73.2% | viability, T/C (second compound 0.1 µM, first compound 0.316 µM) 38.1% | viability, T/C (second compound 0.1 µM, first compound 1 µM) 34.2% | viability, T/C (second compound 0.1 µM, first compound 3.16 µM) 42.9% | viability, T/C (second compound 0.1 µM, first compound 10 µM) 37.2% | viability, T/C (second compound 0.316 µM, first compound 0.0316 µM) 73.2% | viability, T/C (second compound 0.316 µM, first compound 0.1 µM) 68.3% | viability, T/C (second compound 0.316 µM, first compound 0.316 µM) 43.9% | viability, T/C (second compound 0.316 µM, first compound 1 µM) 31.3% | viability, T/C (second compound 0.316 µM, first compound 3.16 µM) 49.6% | viability, T/C (second compound 0.316 µM, first compound 10 µM) 45.4% | viability, T/C (second compound 1 µM, first compound 0.0316 µM) 58.9% | viability, T/C (second compound 1 µM, first compound 0.1 µM) 63.4% | viability, T/C (second compound 1 µM, first compound 0.316 µM) 37.6% | viability, T/C (second compound 1 µM, first compound 1 µM) 34.4% | viability, T/C (second compound 1 µM, first compound 3.16 µM) 42.6% | viability, T/C (second compound 1 µM, first compound 10 µM) 43.4% | viability, T/C (second compound 3.16 µM, first compound 0.0316 µM) 65.9% | viability, T/C (second compound 3.16 µM, first compound 0.1 µM) 55.4% | viability, T/C (second compound 3.16 µM, first compound 0.316 µM) 44.6% | viability, T/C (second compound 3.16 µM, first compound 1 µM) 38.3% | viability, T/C (second compound 3.16 µM, first compound 3.16 µM) 43% | viability, T/C (second compound 3.16 µM, first compound 10 µM) 45.6% | viability, T/C (second compound 10 µM, first compound 0.0316 µM) 49.8% | viability, T/C (second compound 10 µM, first compound 0.1 µM) 59.9% | viability, T/C (second compound 10 µM, first compound 0.316 µM) 40% | viability, T/C (second compound 10 µM, first compound 1 µM) 37.6% | viability, T/C (second compound 10 µM, first compound 3.16 µM) 47.5% | viability, T/C (second compound 10 µM, first compound 10 µM) 34.9%
212 nM: IC50 (second compound 0.1 µM)
92.5 nM: IC50 (second compound 10 µM)
186 nM: IC50 (second compound 0.0316 µM)
181 nM: IC50 (second compound 1 µM)
